# In PubChem BioAssay AID1745844 (Carcinogenic Potency Database (CPDB), 2022):
# Several values for one entry are separate records, joined by “and”; a condition that tells them apart may be missing. Equal values may be shown once. Activity calls are given as the source filed them. No rule for the calls is given here.
# Tested on: rodent lifetime carcinogenesis bioassay, tumor incidence TD50
# Experiment: carcinogenic potency in animals, long-term in vivo studies, CPDB compilation (AID 1745844)
# [1] = mouse, strain Charles River CD1, females, in drinking water, site: all sites, lesion: all vascular tumors, dosed 52 weeks, study length 52 weeks
# [2] = mouse, strain Charles River CD1, males, in drinking water, site: all sites, lesion: all vascular tumors, dosed 52 weeks, study length 52 weeks
# [3] = mouse, strain Charles River CD1, males, in drinking water, site: liver, lesion: hepatocellular carcinoma, dosed 52 weeks, study length 52 weeks
# [4] = mouse, strain Charles River CD1, males, in drinking water, site: liver, lesion: several types, types named in the paper, dosed 52 weeks, study length 52 weeks
# [5] = mouse, strain Charles River CD1, males, in drinking water, site: lung, lesion: alveolar/bronchiolar adenoma, dosed 52 weeks, study length 52 weeks
structure (smiles),measurement,setting,value
CN(N=O)c1ccncc1,carcinogen call,"rat, strain BD VI, females, by gavage, site: any site (literature study), lesion: benign tumor, dosed 101 weeks, study length 101 weeks",negative (inactive)
same,TD50,"rat, strain BD VI, females, by gavage, site: any site (literature study), lesion: malignant tumor, dosed 101 weeks, study length 101 weeks",26.8 mg/kg/day (inactive)
same,carcinogen call,"rat, strain BD VI, females, by gavage, site: any site (literature study), lesion: several types, types named in the paper, dosed 101 weeks, study length 101 weeks",negative (inactive)
same,carcinogen call,"rat, strain BD VI, females, by gavage, site: liver, lesion: several types, types named in the paper, dosed 101 weeks, study length 101 weeks",negative (inactive)
O=C1N(CCO)CCN1N=Cc1ccc([N+](=O)[O-])o1,TD50,"rat, strain Sprague-Dawley, females, in feed, site: any site (literature study), lesion: several types, types named in the paper, dosed 46 weeks, study length 66 weeks",18 mg/kg/day
same,TD50,"rat, strain Sprague-Dawley, females, in feed, site: mammary gland, lesion: adenocarcinoma, dosed 46 weeks, study length 66 weeks",16.7 mg/kg/day
CN(C)N,TD50,"hamster, strain Syrian Golden, females, in drinking water, site: blood vessels, lesion: several types, types named in the paper, dosed 79 weeks, study length 79 weeks",620 mg/kg/day
same,TD50,"hamster, strain Syrian Golden, females, in drinking water, site: cecum, lesion: several types, types named in the paper, dosed 79 weeks, study length 79 weeks",104 mg/kg/day
same,TD50,"hamster, strain Syrian Golden, females, in drinking water, site: liver, lesion: several types, types named in the paper, dosed 79 weeks, study length 79 weeks",620 mg/kg/day
same,TD50,"hamster, strain Syrian Golden, males, in drinking water, site: blood vessels, lesion: several types, types named in the paper, dosed 91 weeks, study length 91 weeks",183 mg/kg/day
same,TD50,"hamster, strain Syrian Golden, males, in drinking water, site: cecum, lesion: adenocarcinoma, dosed 91 weeks, study length 91 weeks",322 mg/kg/day
same,TD50,"hamster, strain Syrian Golden, males, in drinking water, site: cecum, lesion: polypoid adenoma, dosed 91 weeks, study length 91 weeks",372 mg/kg/day
same,TD50,"hamster, strain Syrian Golden, males, in drinking water, site: cecum, lesion: several types, types named in the paper, dosed 91 weeks, study length 91 weeks",155 mg/kg/day
same,TD50,"hamster, strain Syrian Golden, males, in drinking water, site: liver, lesion: angioma, dosed 91 weeks, study length 91 weeks",975 mg/kg/day
same,TD50,"hamster, strain Syrian Golden, males, in drinking water, site: liver, lesion: angiosarcoma, dosed 91 weeks, study length 91 weeks",242 mg/kg/day
same,TD50,"hamster, strain Syrian Golden, males, in drinking water, site: liver, lesion: several types, types named in the paper, dosed 91 weeks, study length 91 weeks",183 mg/kg/day
same,TD50,[1],26 mg/kg/day
same,carcinogen call,[1],negative (inactive)
same,TD50,"mouse, strain Charles River CD1, females, in drinking water, site: all sites, lesion: all vascular tumors, dosed 104 weeks, study length 104 weeks",11.1 mg/kg/day
same,TD50,"mouse, strain Charles River CD1, females, in drinking water, site: all sites, lesion: hemangioma, dosed 52 weeks, study length 52 weeks",39.7 mg/kg/day
same,TD50,"mouse, strain Charles River CD1, females, in drinking water, site: all sites, lesion: hemangiosarcoma, dosed 52 weeks, study length 52 weeks",80.8 mg/kg/day
same,TD50,"mouse, strain Charles River CD1, females, in drinking water, site: liver, lesion: all vascular tumors, dosed 52 weeks, study length 52 weeks",26 mg/kg/day
same,TD50,"mouse, strain Charles River CD1, females, in drinking water, site: liver, lesion: hemangioma, dosed 52 weeks, study length 52 weeks",39.7 mg/kg/day
same,TD50,"mouse, strain Charles River CD1, females, in drinking water, site: liver, lesion: hemangiosarcoma, dosed 52 weeks, study length 52 weeks",80.8 mg/kg/day
same,TD50,"mouse, strain Charles River CD1, females, in drinking water, site: liver, lesion: hepatocellular adenoma, dosed 104 weeks, study length 104 weeks",98.7 mg/kg/day and 63.6 mg/kg/day
same,TD50,"mouse, strain Charles River CD1, females, in drinking water, site: liver, lesion: hepatocellular carcinoma, dosed 104 weeks, study length 104 weeks",340 mg/kg/day
same,carcinogen call,"mouse, strain Charles River CD1, females, in drinking water, site: liver, lesion: one or several types, types not named, dosed 52 weeks, study length 52 weeks",negative (inactive)
same,TD50,"mouse, strain Charles River CD1, females, in drinking water, site: liver, lesion: several types, types named in the paper, dosed 104 weeks, study length 104 weeks",74.7 mg/kg/day
same,TD50,"mouse, strain Charles River CD1, females, in drinking water, site: lung, lesion: alveolar/bronchiolar carcinoma, dosed 52 weeks, study length 52 weeks",81.5 mg/kg/day
same,TD50,"mouse, strain Charles River CD1, females, in drinking water, site: lung, lesion: several types, types named in the paper, dosed 52 weeks, study length 52 weeks",3.68 mg/kg/day
same,TD50,[2],12.6 mg/kg/day
same,carcinogen call,[2],negative (inactive)
same,TD50,"mouse, strain Charles River CD1, males, in drinking water, site: all sites, lesion: all vascular tumors, dosed 104 weeks, study length 104 weeks",6.13 mg/kg/day
same,TD50,"mouse, strain Charles River CD1, males, in drinking water, site: all sites, lesion: hemangioma, dosed 52 weeks, study length 52 weeks",33.4 mg/kg/day
same,TD50,"mouse, strain Charles River CD1, males, in drinking water, site: all sites, lesion: hemangioma, dosed 104 weeks, study length 104 weeks",339 mg/kg/day
same,TD50,"mouse, strain Charles River CD1, males, in drinking water, site: all sites, lesion: hemangiosarcoma, dosed 52 weeks, study length 52 weeks",21.7 mg/kg/day
same,TD50,"mouse, strain Charles River CD1, males, in drinking water, site: liver, lesion: all vascular tumors, dosed 52 weeks, study length 52 weeks",12.6 mg/kg/day
same,TD50,"mouse, strain Charles River CD1, males, in drinking water, site: liver, lesion: all vascular tumors, dosed 104 weeks, study length 104 weeks",6.47 mg/kg/day
same,TD50,"mouse, strain Charles River CD1, males, in drinking water, site: liver, lesion: hemangioma, dosed 52 weeks, study length 52 weeks",33.4 mg/kg/day
same,TD50,"mouse, strain Charles River CD1, males, in drinking water, site: liver, lesion: hemangioma, dosed 104 weeks, study length 104 weeks",339 mg/kg/day
same,TD50,"mouse, strain Charles River CD1, males, in drinking water, site: liver, lesion: hemangiosarcoma, dosed 52 weeks, study length 52 weeks",21.7 mg/kg/day
same,TD50,"mouse, strain Charles River CD1, males, in drinking water, site: liver, lesion: hepatocellular adenoma, dosed 52 weeks, study length 52 weeks",26.7 mg/kg/day (inactive)
same,TD50,[3],10.8 mg/kg/day
same,carcinogen call,[3],negative (inactive)
same,TD50,"mouse, strain Charles River CD1, males, in drinking water, site: liver, lesion: hepatocellular carcinoma, dosed 104 weeks, study length 104 weeks",11.9 mg/kg/day and 33.4 mg/kg/day
same,TD50,[4],6.28e+06 mg/kg/day
same,carcinogen call,[4],negative (inactive)
same,TD50,[5],5.18 mg/kg/day
same,carcinogen call,[5],negative (inactive)
same,TD50,"mouse, strain Charles River CD1, males, in drinking water, site: lung, lesion: alveolar/bronchiolar carcinoma, dosed 52 weeks, study length 52 weeks",67.4 mg/kg/day
same,TD50,"mouse, strain Charles River CD1, males, in drinking water, site: lung, lesion: alveolar/bronchiolar carcinoma, dosed 104 weeks, study length 104 weeks",89 mg/kg/day and 33.4 mg/kg/day
same,TD50,"mouse, strain Charles River CD1, males, in drinking water, site: lung, lesion: several types, types named in the paper, dosed 52 weeks, study length 52 weeks",4.33 mg/kg/day
same,TD50,"mouse, strain Charles River CD1, males, in drinking water, site: lung, lesion: several types, types named in the paper, dosed 104 weeks, study length 104 weeks",39.6 mg/kg/day and 26.4 mg/kg/day
same,TD50,"mouse, strain Swiss albino, females, in drinking water, site: blood vessels, lesion: angiosarcoma, dosed 72 weeks, study length 72 weeks",3.57 mg/kg/day
same,TD50,"mouse, strain Swiss albino, females, in drinking water, site: blood vessels, lesion: several types, types named in the paper, dosed 72 weeks, study length 72 weeks",3.65 mg/kg/day
same,TD50,"mouse, strain Swiss albino, females, in drinking water, site: kidney, lesion: adenoma, dosed 72 weeks, study length 72 weeks",148 mg/kg/day
same,TD50,"mouse, strain Swiss albino, females, in drinking water, site: lung, lesion: adenocarcinoma, dosed 72 weeks, study length 72 weeks",51.6 mg/kg/day
same,TD50,"mouse, strain Swiss albino, females, in drinking water, site: lung, lesion: adenoma, dosed 72 weeks, study length 72 weeks",5.58 mg/kg/day
same,TD50,"mouse, strain Swiss albino, females, in drinking water, site: lung, lesion: several types, types named in the paper, dosed 72 weeks, study length 72 weeks",5.69 mg/kg/day
same,TD50,"mouse, strain Swiss albino, males, in drinking water, site: blood vessels, lesion: angiosarcoma, dosed 62 weeks, study length 62 weeks",2.09 mg/kg/day
same,TD50,"mouse, strain Swiss albino, males, in drinking water, site: blood vessels, lesion: several types, types named in the paper, dosed 62 weeks, study length 62 weeks",2.11 mg/kg/day
same,TD50,"mouse, strain Swiss albino, males, in drinking water, site: kidney, lesion: adenoma, dosed 62 weeks, study length 62 weeks",19.5 mg/kg/day
same,TD50,"mouse, strain Swiss albino, males, in drinking water, site: liver, lesion: hepatoma, dosed 62 weeks, study length 62 weeks",30.4 mg/kg/day
same,TD50,"mouse, strain Swiss albino, males, in drinking water, site: lung, lesion: adenocarcinoma, dosed 62 weeks, study length 62 weeks",46.6 mg/kg/day
same,TD50,"mouse, strain Swiss albino, males, in drinking water, site: lung, lesion: adenoma, dosed 62 weeks, study length 62 weeks",2.62 mg/kg/day
same,TD50,"mouse, strain Swiss albino, males, in drinking water, site: lung, lesion: several types, types named in the paper, dosed 62 weeks, study length 62 weeks",2.62 mg/kg/day
same,TD50,"mouse, strain Swiss, females, by gavage, site: lung, lesion: one or several types, types not named, dosed 40 weeks, study length 55 weeks",16 mg/kg/day
same,carcinogen call,"rat, strain Fischer 344, females, in drinking water, site: liver, lesion: hemangioma, dosed 52 weeks, study length 52 weeks",negative (inactive)
same,TD50,"rat, strain Fischer 344, females, in drinking water, site: liver, lesion: hepatocellular adenoma, dosed 104 weeks, study length 104 weeks",184 mg/kg/day (inactive)
same,TD50,"rat, strain Fischer 344, females, in drinking water, site: liver, lesion: hepatocellular carcinoma, dosed 104 weeks, study length 104 weeks",40.7 mg/kg/day (inactive)
same,TD50,"rat, strain Fischer 344, females, in drinking water, site: liver, lesion: several types, types named in the paper, dosed 104 weeks, study length 104 weeks",30.9 mg/kg/day (inactive)
same,TD50,"rat, strain Fischer 344, females, in drinking water, site: pituitary gland, lesion: adenoma, dosed 104 weeks, study length 104 weeks",14.8 mg/kg/day (inactive)
same,TD50,"rat, strain Fischer 344, males, in drinking water, site: liver, lesion: hepatocellular adenoma, dosed 104 weeks, study length 104 weeks",205 mg/kg/day (inactive)
same,TD50,"rat, strain Fischer 344, males, in drinking water, site: liver, lesion: hepatocellular carcinoma, dosed 104 weeks, study length 104 weeks",650 mg/kg/day (inactive)
same,carcinogen call,"rat, strain Fischer 344, males, in drinking water, site: liver, lesion: one or several types, types not named, dosed 52 weeks, study length 52 weeks",negative (inactive)
same,TD50,"rat, strain Fischer 344, males, in drinking water, site: liver, lesion: several types, types named in the paper, dosed 104 weeks, study length 104 weeks",155 mg/kg/day (inactive)
O=C(CCl)c1ccccc1,TD50,"mouse, strain B6C3F1, females, inhaled, site: any site (literature study), lesion: several types, types named in the paper, dosed 103 weeks, study length 105 weeks",4.31 mg/kg/day (inactive)
same,TD50,"mouse, strain B6C3F1, females, inhaled, site: lung, lesion: alveolar/bronchiolar adenoma + alveolar/bronchiolar carcinoma, dosed 103 weeks, study length 105 weeks",33.4 mg/kg/day
same,TD50,"mouse, strain B6C3F1, males, inhaled, site: any site (literature study), lesion: several types, types named in the paper, dosed 103 weeks, study length 106 weeks",2.69 mg/kg/day (inactive)
same,TD50,"mouse, strain B6C3F1, males, inhaled, site: liver, lesion: hepatocellular adenoma + hepatocellular carcinoma + neoplastic nodule, dosed 103 weeks, study length 106 weeks",5.24 mg/kg/day
same,TD50,"mouse, strain B6C3F1, males, inhaled, site: lung, lesion: alveolar/bronchiolar adenoma + alveolar/bronchiolar carcinoma, dosed 103 weeks, study length 106 weeks",10.4 mg/kg/day
same,TD50,"rat, strain Fischer 344, females, inhaled, site: any site (literature study), lesion: several types, types named in the paper, dosed 103 weeks, study length 105 weeks",0.859 mg/kg/day
same,TD50,"rat, strain Fischer 344, females, inhaled, site: mammary gland, lesion: adenocarcinoma + adenoma + fibroadenoma, dosed 103 weeks, study length 105 weeks",0.224 mg/kg/day
same,TD50,"rat, strain Fischer 344, females, inhaled, site: mammary gland, lesion: adenoma + fibroadenoma, dosed 103 weeks, study length 105 weeks",0.208 mg/kg/day
same,TD50,"rat, strain Fischer 344, females, inhaled, site: mammary gland, lesion: fibroadenoma, dosed 103 weeks, study length 105 weeks",0.211 mg/kg/day
same,carcinogen call,"rat, strain Fischer 344, males, inhaled, site: any site (literature study), lesion: several types, types named in the paper, dosed 103 weeks, study length 105 weeks",negative (inactive)
